Measured values from patent US20130085064A1, “PESTICIDAL MIXTURES CONTAINING ISOXAZOLINE DERIVATIVES AND INSECTICIDE OR NEMATOICIDAL BIOLOGICAL AGENT” (priority 2010, published 2013).
Values joined by “and” are separate entries in the source; they are usually repeats but may differ in a detail not shown here. Equal values may be shown once. Read-outs that look alike come from different tables or passages of the source.

Assays:
[1] = system: Heliothis virescens (tobacco budworm); assay: Heliothis virescens eggs in 24-well microtiter plate on artificial diet, larval mortality; type: in vivo; details: for pest or weed control at 0.375 ppm / pest or weed control at 0.75 ppm / pest or weed control at 1.5 ppm / pest or weed control at 3 ppm / pest or weed control at 6 ppm / pest or weed control at 12 ppm / pest or weed control at 6.25 ppm / pest or weed control at 12.5 ppm / pest or weed control at 25 ppm / pest or weed control at 50 ppm / pest or weed control at 100 ppm / pest or weed control at 200 ppm: Heliothis virescens, 96 h, read-out: AVERAGE DEAD IN %
Source text: (§1) The action to be expected E for a given active ingredient combination obeys the so-called COLBY formula and can be calculated as follows (COLBY, S.R. “Calculating synergistic and antagonistic responses of herbicide combination”. Weeds, Vol. 15, pages 20-22; 1967):
(§2) ppm=milligrams of active ingredient (=a.i.) per liter of spray mixture X=% action by active ingredient A) using p ppm of active ingredient Y=% action by active ingredient B) using q ppm of active ingredient.
(§3) According to COLBY, the expected (additive) action of active ingredients A)+B) using p+q ppm of active ingredient is
(§4) If the action actually observed (O) is greater than the expected action (E), then the action of the combination is super-additive, i.e. there is a synergistic effect. In mathematical terms the synergism factor SF corresponds to O/E. In the agricultural practice an SF of ≧1.2 indicates significant improvement over the purely complementary addition of activities (expected activity), while an SF of ≦0.9 in the practical application routine signals a loss of activity compared to the expected activity.
Heliothis Virescens (Tobacco Budworm)
Eggs (0-24 h old) are placed in 24-well microtiter plate on artificial diet and treated with test solutions (DMSO) by pipetting. After an incubation period of 4 days, samples are checked for larval mortality.

[2] = system: Tetranychus urticae (two-spotted spider mite); assay: Tetranychus urticae bean leaf discs in 24-well microtiter plates, mixed population mortality; type: in vivo; details: 8 days
Source text: as §1, §2, §3, §4
Tetranychus Urticae (Two-Spotted Spider Mite)
Bean leaf discs on agar in 24-well microtiter plates are sprayed with test solutions (DMSO). After drying, the leaf discs are infested with mite populations of mixed ages. 8 days later, discs are checked for mixed population mortality.

[3] = single compound, 12.5 ppm AI, larval mortality, 4 days
[4] = single compound, 25 ppm AI, larval mortality, 4 days
[5] = single compound, 50 ppm AI, larval mortality, 4 days
[6] = single compound, 100 ppm AI, larval mortality, 4 days
[7] = single compound, 200 ppm AI, larval mortality, 4 days

Molecule: Cc1cc(C2=NOC(c3cc(Cl)cc(Cl)c3)(C(F)(F)F)C2)ccc1C(=O)NC1CSC1 (racemic) [SYN 545706]
- AVERAGE DEAD IN % ([1]; single compound, 0.1 ppm AI, larval mortality, 4 days): 0%
- AVERAGE DEAD IN % ([1]; single compound, 0.2 ppm AI, larval mortality, 4 days): 35% and 25%
- AVERAGE DEAD IN % ([1]; single compound, 0.4 ppm AI, larval mortality, 4 days): 90% and 78%
- AVERAGE DEAD IN % ([1]; single compound, 0.8 ppm AI, larval mortality, 4 days): 95% and 88%
- AVERAGE DEAD IN % ([1]; single compound, 1.6 ppm AI, larval mortality, 4 days): 90% and 91%
- AVERAGE DEAD IN % ([1]; single compound, 3.2 ppm AI, larval mortality, 4 days): 98% and 96%

Molecule: CN/C(=N\[N+](=O)[O-])NCc1cnc(Cl)s1 [Clothianidin]
- pest or weed control at 0.375 ppm ([1]; Clothianidin alone 0.375 ppm AI): 0%
- pest or weed control at 0.75 ppm ([1]; Clothianidin alone 0.75 ppm AI): 0%
- pest or weed control at 1.5 ppm ([1]; Clothianidin alone 1.5 ppm AI): 0%
- pest or weed control at 3 ppm ([1]; Clothianidin alone 3 ppm AI): 3%
- pest or weed control at 6 ppm ([1]; Clothianidin alone 6 ppm AI): 38%
- pest or weed control at 12 ppm ([1]; Clothianidin alone 12 ppm AI): 48%
- pest or weed control at 0.375 ppm ([1]; single compound at 0.375 ppm AI): 0%
- pest or weed control at 0.75 ppm ([1]; single compound at 0.75 ppm AI): 0%
- pest or weed control at 1.5 ppm ([1]; single compound at 1.5 ppm AI): 0%
- pest or weed control at 3 ppm ([1]; single compound at 3 ppm AI): 3%
- pest or weed control at 6 ppm ([1]; single compound at 6 ppm AI): 38%
- pest or weed control at 12 ppm ([1]; single compound at 12 ppm AI): 48%
- pest or weed control at 0.375 ppm ([1]; single compound, 0.375 ppm AI, larval mortality, 4 days): 0%
- pest or weed control at 0.75 ppm ([1]; single compound, 0.75 ppm AI, larval mortality, 4 days): 0%
- pest or weed control at 1.5 ppm ([1]; single compound, 1.5 ppm AI, larval mortality, 4 days): 0%
- pest or weed control at 3 ppm ([1]; single compound, 3 ppm AI, larval mortality, 4 days): 0%
- pest or weed control at 6 ppm ([1]; single compound, 6 ppm AI, larval mortality, 4 days): 45%
- pest or weed control at 12 ppm ([1]; single compound, 12 ppm AI, larval mortality, 4 days): 80%

Molecule: N#CCNC(=O)c1cnccc1C(F)(F)F [Flonicamid]
- AVERAGE DEAD IN % ([1]; Flonicamid alone 12.5 ppm AI): 0%
- AVERAGE DEAD IN % ([1]; Flonicamid alone 25 ppm AI): 0%
- AVERAGE DEAD IN % ([1]; Flonicamid alone 50 ppm AI): 0%
- AVERAGE DEAD IN % ([1]; Flonicamid alone 100 ppm AI): 0%
- AVERAGE DEAD IN % ([1]; Flonicamid alone 200 ppm AI): 0%
- AVERAGE DEAD IN % ([1]; Flonicamid alone 400 ppm AI): 0%
- AVERAGE DEAD IN % ([1]; single compound at 12.5 ppm AI): 0%
- AVERAGE DEAD IN % ([1]; single compound at 25 ppm AI): 0%
- AVERAGE DEAD IN % ([1]; single compound at 50 ppm AI): 0%
- AVERAGE DEAD IN % ([1]; single compound at 100 ppm AI): 0%
- AVERAGE DEAD IN % ([1]; single compound at 200 ppm AI): 0%
- AVERAGE DEAD IN % ([1]; single compound at 400 ppm AI): 0%
- AVERAGE DEAD IN % [1, 3]: 0%
- AVERAGE DEAD IN % [1, 4]: 0%
- AVERAGE DEAD IN % [1, 5]: 15%
- AVERAGE DEAD IN % [1, 6]: 0%
- AVERAGE DEAD IN % [1, 7]: 0%
- AVERAGE DEAD IN % ([1]; single compound, 400 ppm AI, larval mortality, 4 days): 0%

Molecule: O=[N+]([O-])NC1=NCCN1Cc1ccc(Cl)nc1 [Imidacloprid]
- AVERAGE DEAD IN % ([2]; 25 ppm alone): 0%
- AVERAGE DEAD IN % ([2]; 50 ppm alone): 0%
- AVERAGE DEAD IN % ([2]; 100 ppm alone): 25%
- AVERAGE DEAD IN % ([2]; 200 ppm alone): 0%
- AVERAGE DEAD IN % ([2]; 400 ppm alone): 13%
- AVERAGE DEAD IN % ([2]; 800 ppm alone): 25%
- AVERAGE DEAD IN % ([2]; Imidacloprid alone, 25 ppm, Table 123): 0%
- AVERAGE DEAD IN % ([2]; Imidacloprid alone, 50 ppm, Table 123): 0%
- AVERAGE DEAD IN % ([2]; Imidacloprid alone, 100 ppm, Table 123): 25%
- AVERAGE DEAD IN % ([2]; Imidacloprid alone, 200 ppm, Table 123): 0%
- AVERAGE DEAD IN % ([2]; Imidacloprid alone, 400 ppm, Table 123): 13%
- AVERAGE DEAD IN % ([2]; Imidacloprid alone, 800 ppm, Table 123): 25%
- pest or weed control at 6.25 ppm ([1]; Imidacloprid alone 6.25 ppm AI): 0%
- pest or weed control at 12.5 ppm ([1]; Imidacloprid alone 12.5 ppm AI): 0%
- pest or weed control at 25 ppm ([1]; Imidacloprid alone 25 ppm AI): 20%
- pest or weed control at 50 ppm ([1]; Imidacloprid alone 50 ppm AI): 50%
- pest or weed control at 100 ppm ([1]; Imidacloprid alone 100 ppm AI): 95%
- pest or weed control at 200 ppm ([1]; Imidacloprid alone 200 ppm AI): 100%
- pest or weed control at 6.25 ppm ([1]; single compound at 6.25 ppm AI): 0%
- pest or weed control at 12.5 ppm ([1]; single compound at 12.5 ppm AI): 0%
- pest or weed control at 25 ppm ([1]; single compound at 25 ppm AI): 20%
- pest or weed control at 50 ppm ([1]; single compound at 50 ppm AI): 50%
- pest or weed control at 100 ppm ([1]; single compound at 100 ppm AI): 95%
- pest or weed control at 200 ppm ([1]; single compound at 200 ppm AI): 100%
- pest or weed control at 6.25 ppm ([1]; single compound, 6.25 ppm AI, larval mortality, 4 days): 0%
- pest or weed control at 12.5 ppm [1, 3]: 0%
- pest or weed control at 25 ppm [1, 4]: 75%
- pest or weed control at 50 ppm [1, 5]: 85%
- pest or weed control at 100 ppm [1, 6]: 88%
- pest or weed control at 200 ppm [1, 7]: 100%

Molecule: Emamectin
- AVERAGE DEAD IN % ([2]; 0.1 ppm alone): 70%
- AVERAGE DEAD IN % ([2]; 0.2 ppm alone): 75%
- AVERAGE DEAD IN % ([2]; 0.4 ppm alone): 93%
- AVERAGE DEAD IN % ([2]; 0.8 ppm alone): 95%
- AVERAGE DEAD IN % ([2]; 1.6 ppm alone): 95%
- AVERAGE DEAD IN % ([2]; 3.2 ppm alone): 100%
- AVERAGE DEAD IN % ([2]; Emamectin alone, 0.1 ppm, Table 121): 70%
- AVERAGE DEAD IN % ([2]; Emamectin alone, 0.2 ppm, Table 121): 75%
- AVERAGE DEAD IN % ([2]; Emamectin alone, 0.4 ppm, Table 121): 93%
- AVERAGE DEAD IN % ([2]; Emamectin alone, 0.8 ppm, Table 121): 95%
- AVERAGE DEAD IN % ([2]; Emamectin alone, 1.6 ppm, Table 121): 95%
- AVERAGE DEAD IN % ([2]; Emamectin alone, 3.2 ppm, Table 121): 100%
